Measured values reported in the NIST ThermoML archive (doi:10.1021/je7001946).

Test: mn = molality of the nth substance listed, in mol/kg
Details: 101.3 kPa, Liquid; for speed of sound: Pulse-echo method

[Br][Co][Br] [cobalt(II) bromide] + CC#N
Details	mass density, 288.15 K [kg/m3]	mass density, 293.15 K [kg/m3]	mass density, 298.15 K [kg/m3]	mass density, 303.15 K [kg/m3]	mass density, 308.15 K [kg/m3]	mass density, 313.15 K [kg/m3]	mass density, 323.15 K [kg/m3]	speed of sound, 298.15 K [m/s]
m1 = 0.06384	797.529	792.118	786.677	781.218	775.72	770.192	759.026	–
m1 = 0.08092	800.3	794.88	789.432	783.966	778.458	772.92	761.738	–
m1 = 0.09698	802.926	797.495	792.044	786.563	781.049	775.5	764.302	1277
m1 = 0.1125	805.465	800.033	794.565	789.08	783.57	778.02	766.801	–
m1 = 0.1286	808.142	802.7	797.232	791.742	786.222	780.656	769.421	1276
m1 = 0.1428	810.505	805.061	799.583	794.089	788.55	782.985	771.734	–
m1 = 0.1587	813.161	807.703	802.224	796.713	791.168	785.595	774.335	1275.3
m1 = 0.19	818.466	812.988	807.489	801.964	796.411	790.822	779.533	1274.6
m1 = 0.2204	823.615	818.13	812.623	807.083	801.513	795.917	784.593	1273.9
m1 = 0.2527	829.214	823.715	818.194	812.642	807.057	801.45	790.088	–
m1 = 0.2636	831.14	825.637	820.113	814.557	808.967	803.34	791.988	1273.2
m1 = 0.2777	833.591	828.085	822.557	816.995	811.404	805.778	794.405	–
m1 = 0.3089	839.134	833.612	828.072	822.494	816.889	811.253	799.854	1272.1

[Br-].[Br-].[Mn+2] [manganese(II) bromide] + CC#N
Details	mass density, 288.15 K [kg/m3]	mass density, 293.15 K [kg/m3]	mass density, 298.15 K [kg/m3]	mass density, 303.15 K [kg/m3]	mass density, 308.15 K [kg/m3]	mass density, 313.15 K [kg/m3]	mass density, 323.15 K [kg/m3]	speed of sound, 298.15 K [m/s]
m1 = 0.0415	793.652	788.26	782.85	777.408	771.942	766.441	755.33	–
m1 = 0.0513	795.156	789.764	784.353	778.907	773.433	767.926	756.805	–
m1 = 0.06115	796.676	791.28	785.862	780.415	774.941	769.432	758.311	1277.2
m1 = 0.07131	798.243	792.85	787.428	781.978	776.494	770.984	759.855	–
m1 = 0.08138	799.819	794.414	788.989	783.537	778.054	772.539	761.403	1276.9
m1 = 0.09054	801.238	795.84	790.408	784.953	779.461	773.94	762.804	–
m1 = 0.1006	802.824	797.413	791.982	786.518	781.03	775.513	764.368	1276.7
m1 = 0.1214	806.091	800.671	795.23	789.765	784.269	778.744	767.585	–
m1 = 0.1406	809.125	803.696	798.249	792.776	787.272	781.741	770.567	1276.1
m1 = 0.1603	812.287	806.853	801.398	795.916	790.407	784.868	773.687	–
m1 = 0.1712	814.024	808.58	803.121	797.634	792.128	786.584	775.396	1275.7
m1 = 0.1804	815.501	810.054	804.59	799.11	793.589	788.041	776.847	–
m1 = 0.1995	818.585	813.117	807.642	802.149	796.622	791.065	779.856	1275.3

[Br-].[Br-].[Zn+2] [zinc bromide] + CC#N
Details	mass density, 288.15 K [kg/m3]	mass density, 293.15 K [kg/m3]	mass density, 298.15 K [kg/m3]	mass density, 303.15 K [kg/m3]	mass density, 308.15 K [kg/m3]	mass density, 313.15 K [kg/m3]	mass density, 323.15 K [kg/m3]	speed of sound, 298.15 K [m/s]
m1 = 0.02964	–	–	–	–	–	–	–	1277.1
m1 = 0.03209	792.171	786.781	781.365	775.922	770.453	764.95	753.836	–
m1 = 0.0404	793.435	788.04	782.622	777.179	771.701	766.197	755.075	–
m1 = 0.04717	794.467	789.072	783.65	778.202	772.724	767.215	756.09	1276.4
m1 = 0.05609	795.839	790.436	785.044	779.559	774.08	768.567	757.437	–
m1 = 0.06324	796.938	791.534	786.108	780.651	775.17	769.655	758.516	1275.7
m1 = 0.07124	798.167	792.766	787.332	781.876	776.393	770.874	759.73	–
m1 = 0.07952	799.446	794.033	788.597	783.143	777.651	772.126	760.98	1275.1
m1 = 0.09524	801.876	796.466	791.02	785.546	780.047	774.52	763.359	–
m1 = 0.1099	804.162	798.743	793.295	787.86	782.357	776.822	765.649	1273.6
m1 = 0.1252	806.567	801.138	795.677	790.202	784.687	779.149	767.969	–
m1 = 0.1317	807.593	802.157	796.698	791.221	785.702	780.162	768.971	1272.5
m1 = 0.1402	808.922	803.487	798.026	792.539	787.024	781.476	770.273	–
m1 = 0.1554	–	–	–	–	–	–	–	1271.2
